Measurements published in paper PMC5218480 (PLoS ONE, 2017).

System: MV-4-11 cells
Assay: Gene expression microarray analysis (Affymetrix PrimeView) and GSEA
Type: cell-based, human
Set-up: RFU PODN (11730768_x_at) / Fold change /veh PODN (11730768_x_at) / RFU LINC00158 (11744669_a_at) / Fold change /veh LINC00158 (11744669_a_at) / RFU DUSP10 (11751237_a_at) / Fold change /veh DUSP10 (11751237_a_at) / RFU ID3 (11757404_x_at) / Fold change /veh ID3 (11757404_x_at) / RFU PLEKHG5 (11737974_s_at) / Fold change /veh PLEKHG5 (11737974_s_at) / RFU LRRC4B (11730491_at) / Fold change /veh LRRC4B (11730491_at) / RFU GIMAP4 (11747438_a_at) / Fold change /veh GIMAP4 (11747438_a_at) / RFU KRT8 (11758183_x_at) / Fold change /veh KRT8 (11758183_x_at) / RFU CNN1 (11734310_a_at) / Fold change /veh CNN1 (11734310_a_at) / RFU VPS37D (11726825_at) / Fold change /veh VPS37D (11726825_at) / RFU C10orf10 (11716522_x_at) / Fold change /veh C10orf10 (11716522_x_at) / RFU KIR2DL2 /// KIR2DL4 /// KIR2DL5A /// KIR2DL5B /// KIR2DS1 /// KIR2DS2 /// KIR2DS3 /// KIR2DS4 /// KIR3DL3 /// KIR3DL3 /// KIR3DS1 (11738374_at) / Fold change /veh KIR2DL2 /// KIR2DL4 /// KIR2DL5A /// KIR2DL5B /// KIR2DS1 /// KIR2DS2 /// KIR2DS3 /// KIR2DS4 /// KIR3DL3 /// KIR3DL3 /// KIR3DS1 (11738374_at) / RFU C1QL1 (11718748_at) / Fold change /veh C1QL1 (11718748_at) / RFU TMPRSS4 (11747572_a_at) / Fold change /veh TMPRSS4 (11747572_a_at) / RFU HAMP (11756126_x_at) / Fold change /veh HAMP (11756126_x_at) / RFU RNFT2 (11725882_a_at) / Fold change /veh RNFT2 (11725882_a_at) / RFU NR4A2 (11747474_a_at) / Fold change /veh NR4A2 (11747474_a_at) / RFU ABCC12 (11746883_a_at) / Fold change /veh ABCC12 (11746883_a_at) / RFU TMEM136 (11760407_x_at) / Fold change /veh TMEM136 (11760407_x_at) / RFU CLDN22 /// WWC2 (11732394_at) / Fold change /veh CLDN22 /// WWC2 (11732394_at) / RFU HLA-DPB1 (11760878_x_at) / Fold change /veh HLA-DPB1 (11760878_x_at) / RFU SPINT1 (11716480_a_at) / Fold change /veh SPINT1 (11716480_a_at) / RFU GAP43 (11754022_s_at) / Fold change /veh GAP43 (11754022_s_at) / RFU A4GNT (11735810_at) / Fold change /veh A4GNT (11735810_at) / RFU PRB3 (11715151_x_at) / Fold change /veh PRB3 (11715151_x_at) / RFU TUBB4B (11761932_at) / Fold change /veh TUBB4B (11761932_at) / RFU CAPN14 (11732068_a_at) / Fold change /veh CAPN14 (11732068_a_at) / RFU TMCC2 (11721928_a_at) / Fold change /veh TMCC2 (11721928_a_at) / RFU IRGQ (11745062_a_at) / Fold change /veh IRGQ (11745062_a_at) / RFU FAM174B (11720279_a_at) / Fold change /veh FAM174B (11720279_a_at) / RFU TMPRSS4 (11748680_a_at) / Fold change /veh TMPRSS4 (11748680_a_at) / RFU FAM212B (11763350_a_at) / Fold change /veh FAM212B (11763350_a_at) / RFU PLEKHG5 (11743358_a_at) / Fold change /veh PLEKHG5 (11743358_a_at) / RFU ZSCAN30 (11745921_a_at) / Fold change /veh ZSCAN30 (11745921_a_at) / RFU CMKLR1 (11741424_a_at) / Fold change /veh CMKLR1 (11741424_a_at) / RFU LOC101060620 /// MAPK8IP1 (11723275_at) / Fold change /veh LOC101060620 /// MAPK8IP1 (11723275_at) / RFU SPTSSB (11747773_x_at) / Fold change /veh SPTSSB (11747773_x_at) / RFU PRSS12 (11739890_at) / Fold change /veh PRSS12 (11739890_at) / RFU BIN1 (11741810_x_at) / Fold change /veh BIN1 (11741810_x_at) / RFU WNT11 (11732464_a_at) / Fold change /veh WNT11 (11732464_a_at) / RFU C10orf10 (11716521_a_at) / Fold change /veh C10orf10 (11716521_a_at) / RFU C5orf56 (11738089_at) / Fold change /veh C5orf56 (11738089_at) / RFU CYB561 (11721691_x_at) / Fold change /veh CYB561 (11721691_x_at) / RFU ANKRD19P (11752326_a_at) / Fold change /veh ANKRD19P (11752326_a_at) / RFU OR2T12 /// OR2T33 /// OR2T8 (11738714_s_at) / Fold change /veh OR2T12 /// OR2T33 /// OR2T8 (11738714_s_at) / RFU VCAN (11748164_a_at) / Fold change /veh VCAN (11748164_a_at) / RFU JSRP1 (11732532_at) / Fold change /veh JSRP1 (11732532_at) / RFU KRTAP10-11 (11738290_x_at) / Fold change /veh KRTAP10-11 (11738290_x_at) / RFU MYO3A (11730013_a_at) / Fold change /veh MYO3A (11730013_a_at) / RFU EBF3 (11725865_a_at) / Fold change /veh EBF3 (11725865_a_at) / RFU CAMK2N1 (11719241_x_at) / Fold change /veh CAMK2N1 (11719241_x_at) / RFU C5orf56 (11738088_a_at) / Fold change /veh C5orf56 (11738088_a_at) / RFU OLFML3 (11715873_a_at) / Fold change /veh OLFML3 (11715873_a_at) / RFU LOC100653217 /// NTM (11731650_a_at) / Fold change /veh LOC100653217 /// NTM (11731650_a_at) / RFU MAPK11 (11762145_a_at) / Fold change /veh MAPK11 (11762145_a_at) / RFU FIZ1 (11724087_x_at) / Fold change /veh FIZ1 (11724087_x_at) / RFU OASL (11726364_x_at) / Fold change /veh OASL (11726364_x_at) / RFU SOX15 (11748057_x_at) / Fold change /veh SOX15 (11748057_x_at) / RFU CD79A (11719716_a_at) / Fold change /veh CD79A (11719716_a_at) / RFU HIST1H1D (11736915_at) / Fold change /veh HIST1H1D (11736915_at) / RFU CASKIN2 (11723855_a_at) / Fold change /veh CASKIN2 (11723855_a_at) / RFU LOC730098 (11760151_x_at) / Fold change /veh LOC730098 (11760151_x_at) / RFU OR4N2 (11742367_at) / Fold change /veh OR4N2 (11742367_at) / RFU PRRT2 (11749266_a_at) / Fold change /veh PRRT2 (11749266_a_at) / RFU SNX32 (11753110_a_at) / Fold change /veh SNX32 (11753110_a_at) / RFU CDHR5 (11726645_a_at) / Fold change /veh CDHR5 (11726645_a_at) / RFU RCAN1 (11760418_a_at) / Fold change /veh RCAN1 (11760418_a_at) / RFU FAM167A (11723789_a_at) / Fold change /veh FAM167A (11723789_a_at) / RFU FAM26E (11764081_at) / Fold change /veh FAM26E (11764081_at) / RFU ISYNA1 (11749810_s_at) / Fold change /veh ISYNA1 (11749810_s_at) / RFU ACY1 (11761880_at) / Fold change /veh ACY1 (11761880_at) / RFU 11764098_at / Fold change /veh 11764098_at / RFU SAMD14 (11745864_x_at) / Fold change /veh SAMD14 (11745864_x_at) / RFU NPB (11741838_a_at) / Fold change /veh NPB (11741838_a_at) / RFU TMPRSS6 (11731388_a_at) / Fold change /veh TMPRSS6 (11731388_a_at) / RFU KRTAP10-2 (11738614_at) / Fold change /veh KRTAP10-2 (11738614_at) / RFU ARHGAP8 /// PRR5-ARHGAP8 (11727945_x_at) / Fold change /veh ARHGAP8 /// PRR5-ARHGAP8 (11727945_x_at) / RFU KRTAP5-7 /// NADSYN1 (11734609_at) / Fold change /veh KRTAP5-7 /// NADSYN1 (11734609_at) / RFU RASL12 (11751679_a_at) / Fold change /veh RASL12 (11751679_a_at) / RFU CDKN2B (11736163_a_at) / Fold change /veh CDKN2B (11736163_a_at) / RFU PRF1 (11729649_at) / Fold change /veh PRF1 (11729649_at) / RFU, ZNF638 /// ZNF638-IT1 / Fold change vs veh, ZNF638 /// ZNF638-IT1 / RFU, PANK3 / Fold change vs veh, PANK3 / RFU, SH3YL1 / Fold change vs veh, SH3YL1 / RFU, ZEB2 / Fold change vs veh, ZEB2 / RFU, NRIP1 / Fold change vs veh, NRIP1 / RFU, PTTG1IP / Fold change vs veh, PTTG1IP / RFU, CAPN2 / Fold change vs veh, CAPN2 / RFU, MED14 / Fold change vs veh, MED14 / RFU, SNORA58 / Fold change vs veh, SNORA58 / RFU, C1orf63 / Fold change vs veh, C1orf63 / RFU, LRRFIP1 / Fold change vs veh, LRRFIP1 / RFU, NDUFAF7 / Fold change vs veh, NDUFAF7 / RFU, SLC12A2 / Fold change vs veh, SLC12A2 / RFU, IBTK / Fold change vs veh, IBTK / RFU, ESF1 / Fold change vs veh, ESF1 / Fold change vs veh, TMEM50B / RFU, TAOK1 / Fold change vs veh, TAOK1 / RFU, ACBD3 / Fold change vs veh, ACBD3 / RFU, TMA16 / Fold change vs veh, TMA16 / RFU, RWDD3 / Fold change vs veh, RWDD3 / RFU, BCAT1 / Fold change vs veh, BCAT1 / RFU, EDEM3 / Fold change vs veh, EDEM3 / RFU, TMEM33 / Fold change vs veh, TMEM33 / RFU, WDR75 / Fold change vs veh, WDR75 / RFU, AHCTF1 / Fold change vs veh, AHCTF1 / RFU, TFRC / Fold change vs veh, TFRC / RFU, ZDHHC17 / Fold change vs veh, ZDHHC17 / RFU, NOM1 / Fold change vs veh, NOM1 / RFU, ARL8B / Fold change vs veh, ARL8B / RFU, ZBTB11 / Fold change vs veh, ZBTB11 / RFU, TAMM41 / Fold change vs veh, TAMM41 / RFU, KIAA1704 /// LOC100996395 / Fold change vs veh, KIAA1704 /// LOC100996395 / RFU, ING1 / Fold change vs veh, ING1 / RFU, TRMT61B / Fold change vs veh, TRMT61B / RFU, FUBP3 / Fold change vs veh, FUBP3 / RFU, TP53 / Fold change vs veh, TP53 / RFU, TNKS2 / Fold change vs veh, TNKS2 / RFU, ZFP14 / Fold change vs veh, ZFP14 / RFU, ACTR2 / Fold change vs veh, ACTR2 / RFU, PPP3R1 / Fold change vs veh, PPP3R1 / RFU, PIK3R1 / Fold change vs veh, PIK3R1 / RFU, HNRNPA1 / Fold change vs veh, HNRNPA1 / RFU, RNF170 / Fold change vs veh, RNF170 / RFU, ZNF28 / Fold change vs veh, ZNF28 / RFU, RNGTT / Fold change vs veh, RNGTT / RFU, OGT / Fold change vs veh, OGT / RFU, BRD1 / Fold change vs veh, BRD1 / RFU, MARS / Fold change vs veh, MARS / RFU, ZNF655 / Fold change vs veh, ZNF655 / RFU, FAHD1 / Fold change vs veh, FAHD1 / RFU, BDP1 / Fold change vs veh, BDP1 / RFU, LRRCC1 / Fold change vs veh, LRRCC1 / RFU, ARID1A / Fold change vs veh, ARID1A / RFU, ZNF146 / Fold change vs veh, ZNF146 / RFU, ZNF330 / Fold change vs veh, ZNF330 / RFU, GPN3 / Fold change vs veh, GPN3 / RFU, C9orf123 / Fold change vs veh, C9orf123 / RFU, N4BP2L2 / Fold change vs veh, N4BP2L2 / RFU, ARFIP1 / Fold change vs veh, ARFIP1 / RFU, FAM179B / Fold change vs veh, FAM179B / RFU, BCL10 / Fold change vs veh, BCL10 / RFU, UHRF1BP1L / Fold change vs veh, UHRF1BP1L / RFU, BET1 / Fold change vs veh, BET1 / RFU, CNOT2 / Fold change vs veh, CNOT2 / RFU, ZNF268 / Fold change vs veh, ZNF268 / Fold change vs veh, ZNF507 / RFU, DGCR2 / Fold change vs veh, DGCR2 / RFU, WDSUB1 / Fold change vs veh, WDSUB1 / Fold change vs veh, HSP90B1 /// MIR3652 / RFU, ADSS / Fold change vs veh, ADSS / RFU, GK / Fold change vs veh, GK / RFU, ZNF148 / Fold change vs veh, ZNF148 / RFU, TAF9 / Fold change vs veh, TAF9 / RFU, SLC1A5 / Fold change vs veh, SLC1A5 / RFU, SLMO2 / Fold change vs veh, SLMO2 / RFU, ABCC4 / Fold change vs veh, ABCC4 / RFU, LOC101060439 /// RAP1B / Fold change vs veh, LOC101060439 /// RAP1B / RFU, RFX7 / Fold change vs veh, RFX7 / RFU, GTPBP10 / Fold change vs veh, GTPBP10 / RFU, CNEP1R1 / Fold change vs veh, CNEP1R1 / RFU, BIVM-ERCC5 /// ERCC5 / Fold change vs veh, BIVM-ERCC5 /// ERCC5 / RFU, ILF3 / Fold change vs veh, ILF3 / RFU 11762660_at / Fold change /veh 11762660_at / RFU VCAN (11757783_s_at) / Fold change /veh VCAN (11757783_s_at) / RFU DDX43 (11728927_at) / Fold change /veh DDX43 (11728927_at) / RFU KRT8 (11758188_x_at) / Fold change /veh KRT8 (11758188_x_at) / RFU NKD1 (11759106_at) / Fold change /veh NKD1 (11759106_at) / RFU SRD5A1 (11742802_a_at) / Fold change /veh SRD5A1 (11742802_a_at) / RFU TPSAB1 /// TPSB2 (11721975_s_at) / Fold change /veh TPSAB1 /// TPSB2 (11721975_s_at) / RFU GSTM3 (11746129_a_at) / Fold change /veh GSTM3 (11746129_a_at) / RFU IL23R (11737362_x_at) / Fold change /veh IL23R (11737362_x_at) / RFU TMEM51 (11727254_a_at) / Fold change /veh TMEM51 (11727254_a_at) / RFU PIWIL2 (11732686_x_at) / Fold change /veh PIWIL2 (11732686_x_at) / RFU ORM1 (11744905_x_at) / Fold change /veh ORM1 (11744905_x_at) / RFU CCDC152 (11743942_at) / Fold change /veh CCDC152 (11743942_at) / RFU ECM1 (11717891_a_at) / Fold change /veh ECM1 (11717891_a_at) / RFU IL23R (11748794_a_at) / Fold change /veh IL23R (11748794_a_at) / RFU TNFAIP8L3 (11732012_x_at) / Fold change /veh TNFAIP8L3 (11732012_x_at) / RFU MBOAT4 (11741988_at) / Fold change /veh MBOAT4 (11741988_at) / RFU 11764193_at / Fold change /veh 11764193_at / RFU TMEM53 (11763286_at) / Fold change /veh TMEM53 (11763286_at) / RFU MAGEB2 (11727129_at) / Fold change /veh MAGEB2 (11727129_at) / RFU TMEM200A (11744735_a_at) / Fold change /veh TMEM200A (11744735_a_at) / RFU CCDC152 (11751479_a_at) / Fold change /veh CCDC152 (11751479_a_at) / RFU FAM211A (11726209_a_at) / Fold change /veh FAM211A (11726209_a_at) / RFU RGS16 (11746705_a_at) / Fold change /veh RGS16 (11746705_a_at) / RFU VCAN (11755009_s_at) / Fold change /veh VCAN (11755009_s_at) / RFU RHOB (11743442_s_at) / Fold change /veh RHOB (11743442_s_at) / RFU RGS16 (11720943_a_at) / Fold change /veh RGS16 (11720943_a_at) / RFU RGS16 (11720944_at) / Fold change /veh RGS16 (11720944_at) / RFU, VPS4B / Fold change vs veh, VPS4B / RFU, CREB1 / Fold change vs veh, CREB1 / RFU, DNAJC13 / Fold change vs veh, DNAJC13 / RFU, GNAQ / Fold change vs veh, GNAQ / RFU, CDK5R1 / Fold change vs veh, CDK5R1 / RFU, ZRANB3 / Fold change vs veh, ZRANB3 / RFU, CUL4A / Fold change vs veh, CUL4A / RFU, CCNY / Fold change vs veh, CCNY / RFU, UFL1 / Fold change vs veh, UFL1 / RFU, COG3 / Fold change vs veh, COG3 / RFU, DIAPH2 / Fold change vs veh, DIAPH2 / RFU, SKA2 / Fold change vs veh, SKA2 / RFU, AFF3 / Fold change vs veh, AFF3 / RFU, LMF1 / Fold change vs veh, LMF1 / RFU, IPO11 / Fold change vs veh, IPO11 / RFU, DFFB / Fold change vs veh, DFFB / RFU, FOXP1 / Fold change vs veh, FOXP1 / RFU, CARD8 / Fold change vs veh, CARD8 / RFU, STRN3 / Fold change vs veh, STRN3 / RFU, ADK / Fold change vs veh, ADK / RFU, RASSF2 / Fold change vs veh, RASSF2 / RFU, WIPF1 / Fold change vs veh, WIPF1 / RFU, LARP1B / Fold change vs veh, LARP1B / RFU, RASA1 / Fold change vs veh, RASA1 / RFU, RB1 / Fold change vs veh, RB1 / RFU, PPFIA1 / Fold change vs veh, PPFIA1 / RFU, MAT2A / Fold change vs veh, MAT2A / RFU, CCT5 / Fold change vs veh, CCT5 / RFU, WDR92 / Fold change vs veh, WDR92 / RFU, CUX1 / Fold change vs veh, CUX1 / RFU, TTC7A / Fold change vs veh, TTC7A / RFU, TMEM135 / Fold change vs veh, TMEM135 / RFU, DEPTOR / Fold change vs veh, DEPTOR / RFU, CPM / Fold change vs veh, CPM / RFU, DNAJB6 / Fold change vs veh, DNAJB6 / RFU, CACNA2D3 / Fold change vs veh, CACNA2D3 / RFU, DTX4 / Fold change vs veh, DTX4 / RFU, TFCP2 / Fold change vs veh, TFCP2 / RFU, GMCL1 /// GMCL1P1 / Fold change vs veh, GMCL1 /// GMCL1P1 / RFU, AEBP2 / Fold change vs veh, AEBP2 / RFU, SNHG1 /// SNORD22 /// SNORD25 /// SNORD26 /// SNORD27 /// SNORD28 /// SNORD29 /// SNORD31 / Fold change vs veh, SNHG1 /// SNORD22 /// SNORD25 /// SNORD26 /// SNORD27 /// SNORD28 /// SNORD29 /// SNORD31 / Fold change (Aza/veh), C12orf56 (ProbeSet 11735607_a_at) / Fold change (ACY-1035/veh), C12orf56 (ProbeSet 11735607_a_at) / Fold change (Aza/veh), FGFR1OP (ProbeSet 11751329_s_at) / Fold change (ACY-1035/veh), FGFR1OP (ProbeSet 11751329_s_at) / Fold change (Aza/veh), VPS36 (ProbeSet 11739960_a_at) / Fold change (ACY-1035/veh), VPS36 (ProbeSet 11739960_a_at) / RFU SYPL1 (11715823_x_at) / Fold change /veh SYPL1 (11715823_x_at) / RFU IGFBP7 (11715501_s_at) / Fold change /veh IGFBP7 (11715501_s_at) / RFU REEP3 (11722064_at) / Fold change /veh REEP3 (11722064_at) / RFU IGLL1 (11728026_x_at) / Fold change /veh IGLL1 (11728026_x_at): dose or concentration left out as unconfirmed
Conditions: ProbeSet 11719632_a_at; LIST B

Nc1ccc(-c2cccs2)cc1NC(=O)c1ccc2c(c1)cc(C1CC1)n2CCN1CCOCC1 [ACY-1035]
Fold change vs veh, ABCC4: 0.87
